Laboratory results from patent US20220287995A1, “COMPOSITIONS AND METHODS FOR INHIBITING BACTERIAL VIRULENCE AND FLIM-BASED DEVICE AND METHOD FOR ANTIBIOTIC SUSCEPTIBILITY TESTING” (THE REGENTS OF THE UNIVERSITY OF CALIFORNIA, priority 2019, published 2022).

Tests used:
E. coli [1] = test: FLIM-phasors of E. coli exposed to ampicillin (preliminary data, FIG. 13); assay type: cell-based
From the text: The process of antibiotic susceptibility testing involves: isolation of bacteria from patient samples, immobilization of bacteria on agarose pads that contain different antibiotics supplied above the accepted minimum inhibitory concentration from the major classes commonly used in clinical settings including amoxicillin (penicillin-type), cephalexin (cephalosporin), erythromycin (macrolide), ciprofloxacin (fluoroquinolone), trimethoprim (sulfonamide), tetracycline, and gentamicin (aminoglycoside), imaging using the FLIM-AST device immediately and at 15-minute intervals for 2 hours to assess metabolic kinetics in response to antibiotics (FIG. 12).
The antibiotic susceptibility determination is performed by comparing FLIM-phasor profiles during the 2-hour incubation using software.
The FLIM microscope uses an 80 MHz ultrafast Ti:Sapphire Mai Tai laser (Spectra-physics, Santa Clara, Calif.) set at 740 nm for excitation. […] An H7422P-40 photomultiplier tube module (Hamamatsu, Bridgewater, N.J.) and A320 FastFLIM Box (ISS, Champaign, Ill.) were used to measure fluorescence lifetime. Image acquisition was controlled by SimFCS software (Laboratory for Fluorescence Dynamics, Irvine, Calif.).

[2] = test system: surface-attached P. aeruginosa; test: Image-based virulence (host killing) assay with amoeba host cells and calcein-AM; assay type: cell-based, Pseudomonas aeruginosa
Method: P. aeruginosa cells were assayed using an image-based virulence assay as described previously (12, 50). P. aeruginosa strains were cultured in PS:DB, diluted 1:100 into 60×15 mm plastic petri dishes (Corning, Corning, N.Y.), cultured for 4 to 6 hours by shaking at 100 rpm, and harvested. Planktonic cells were assayed by transferring 10 μL of culture from the petri dish to a new petri dish, mixing with an equal volume of D. discoideum that were grown to an OD600 of 0.2-0.5, and immobilizing by placing an agar pad on top of the mixture (FIG. 11C). Agar pads were made using Bacto agar at a concentration of 1%, DB buffer, and 1 μM calcein acetoxymethyl (AM) ester (Molecular Probes, Eugene, Oreg.), and were cut into 1.5×1.5 cm squares (12, 50). Surface-attached cells were assayed by aspirating planktonic cells from the culture, washing with DB buffer to remove planktonic cells, mixing with an equal volume of D. discoideum, and immobilizing by placing an agar pad on top of the mixture (FIG. 11C) (50). The immobilized planktonic or surface-attached P. aeruginosa and D. discoideum were incubated at room temperature for 1 hour and imaged using fluorescence microscopy. The host killing index (12, 50) was computed as the average ratio of calcein-AM fluorescence to cell area in individual amoeba cells for 30 to 200 cells in each experiment.
Fluorescence microscopy to assess calcein-AM fluorescence was performed using a Nikon Eclipse Ti-E microscope (Nikon, Melville, N.Y.) containing Nikon 10× Plan Fluor Ph1 (0.3 NA) and 20×S Plan Fluor Nikon (0.45 NA) objectives, a Sola light engine (Lumencor, Beaverton, Oreg.), an LED-DA/FI/TX filter set (Semrock, Rochester, N.Y.) containing a 409/493/596 dichroic and 474/27 nm and 525/45 nm filters for excitation and emission, respectively, and a Hamamatsu Orca Flash 4.0 V2 camera (Hamamatsu, Bridgewater, N.J.). Images were acquired using Nikon NIS-Elements and analyzed using custom built software written previously (12) in Matlab (Mathworks, Natick, Mass.).
For experiments in which strains cultured in PS:DB were supplemented with individual carbon sources (FIG. 5A-D), pyruvic acid, citric acid, […], glycerol, or glucose was added to cultures at a final concentration of 0.2% at 3 hours following a 1:100 dilution from an overnight culture. Cultures were harvested after 1 additional hour of growth for measurements of fluorescence lifetime and NADH and NAD^+ concentrations. For experiments in which surface-attached strains that were cultured in PS:DB media were treated with antimycin A (FIG. 5E-F), 10 μM antimycin A dissolved in 0.1% ethanol, 0.1% ethanol, alone, or 10 μM antimycin A dissolved in 0.1% ethanol and 0.2% citric acid were added after 3 hours of growth following a 1:100 dilution from an overnight culture. Host killing was measured after an additional 1 to 3 hours of growth (total of 4 to 6 hours of growth).

E. coli [3] = test: FLIM-AST (FAST) antibiotic susceptibility, g value and residual ratio (RR); assay type: cell-based; details: tetracycline-sensitive vs tetracycline-resistant strain, 1 hour
From the text: We performed FLIM measurements using our FLIM AST (FAST) device of antibiotic-sensitive and antibiotic-resistant E. coli lab strains MG1655 and MC4100, P. aeruginosa strain PA14, and S. aureus strain RN4220 using a broad range of commonly-used antibiotics including tetracycline, ampicillin, carbenicillin, chloramphenicol, spectinomycin, gentamycin, and kanamycin and using a range of concentrations for each drug. For each antibiotic and strain combination, the minimum inhibitory concentration for each antibiotic was determined through measurements of optical densities of cultures. We treated bacterial strains using a range of concentrations starting from below-MIC to above-MIC concentrations for 1 hour.
We computed g values using the FLIM phasor method. Consistent with our predictions, we observed a significant change in g value following treatment by many antibiotics.
To determine a quantitative assessment of resistance, we computed a metric for the degree of antibiotic susceptibility for a given bacterial strain. Our experiments determined that the residual ratio (RR) number was a good indicator of antibiotic resistance:
where the g value is obtained using the phasor method to fluorescence lifetime imaging microscopy (FLIM) and t0 and t1 are the measurement times at the beginning of the measurement or at the end of the experiment, respectively. […]

P. aeruginosa = test: Fluorescence lifetime imaging microscopy (FLIM) phasor g-values of P. aeruginosa; assay type: cell-based, Pseudomonas aeruginosa; details: planktonic wild-type, 0.2% citrate as sole carbon source, 10 μM antimycin A in 0.1% ethanol vs 0.1% ethanol
Method: Fluorescence lifetime measurements were performed using a custom-built multiphoton microscope setup based on an Olympus FV1000 system and an Olympus IX81 microscope (Olympus, Waltham, Mass.) as described previously (68). The FLIM microscope uses an 80 MHz ultrafast Ti:Sapphire Mai Tai laser (Spectra-physics, Santa Clara, Calif.) set at 740 nm for mulitphoton excitation. The setup used a 690-nm SP dichroic-460/80 nm filter pair for separating emission and a PlanApo N Olympus oil immersion 60× (1.42 NA) objective (Olympus, Waltham, Mass.), which is capable of bacterial single-cell resolution imaging. An H7422P-40 photomultiplier tube module (Hamamatsu, Bridgewater, N.J.) and A320 FastFLIM Box (ISS, Champaign, Ill.) were used to measure fluorescence lifetime. Image acquisition was controlled by SimFCS software version 4 (64-bit) (Laboratory for Fluorescence Dynamics, Irvine, Calif.). Planktonic and surface-attached cells were isolated by modifying a protocol described previously (12, 50) (FIG. 11A).
Masks for bacterial cells were created through SimFCS using fluorescence intensity images and image intensity thresholding (FIG. 11B). Fluorescence lifetimes within the masked areas were transformed using
The microscope was calibrated before each session by setting the fluorescence lifetime obtained for 10 μM rhodamine 110 (Sigma, St. Louis, Mo.) to 4.0 ns. The laser power was set to 20% (<3 mW at back aperture of the microscope) using an acousto-optic modulator (AA Opto Electronic, Orsay, France). Sub-cellular fluorescence lifetimes (FIG. 1A) were collected using the 20× digital zoom mode at a rate of 1.7 sec/frame. All other P. aeruginosa measurements were performed using the 6× digital zoom mode using the same frame rate. For all measurements, 40 sequential frames were acquired to generate a single FLIM image.
P. aeruginosa strains were cultured overnight in PS:DB, diluted 1:100 into 35 mm glass-bottom dishes (MatTek Corporation, Ashland, Mass.) containing the same medium, and cultured for 4 to 6 hours (FIGS. 2E-F, 4A, 5A, and 8C). Alternatively, strains were cultured overnight in minimal medium A, diluted 1:100 into modified minimal media A with single carbon sources in culture tubes (FIGS. 6D-E and 7A-B, D) or glass-bottom dishes and cultured to an OD600 of 0.2 (FIG. 2E-F).
Planktonic cells were transferred to a new glass-bottom dish, immobilized using an agar pad, and imaged immediately (FIG. 11A). Agar pads were made using 1% Bacto agar (BD, Franklin Lakes, N.J.) and DB buffer (1, 2) or modified minimal medium A containing no carbon source for strains that were cultured in PS:DB or modified minimal medium, respectively, and were cut into 1.5×1.5 cm squares. Surface-attached cells were isolated by aspirating the supernatant from the dish, washing the dish to remove planktonic cells with DB buffer or modified minimal medium with no carbon source for strains cultured in PS:DB or modified minimal medium, respectively, and placing an agar pad on the dish surface, and were imaged immediately. Imaging was performed at room temperature.
For experiments involving FLIM measurements of the effects of antimycin A (FIG. 7D), P. aeruginosa were grown in culture tubes to saturation in modified minimal medium A containing 0.2% citrate, diluted 1:100 into the same medium in culture tubes, supplemented with 10 μM antimycin A (Sigma, St. Louis, Mo.) with 0.1% ethanol or with 0.1% ethanol, cultured to an OD600 of 0.2, and immediately measured for fluorescence lifetime. Fluorescence lifetimes for pyocyanin and pyoverdine (FIG. 7C) were measured using solutions of 6.2 mM pyocyanin (P0046, Sigma, St. Louis, Mo.) in DMSO and 5 mg/mL pyoverdine (P8124, Sigma, St. Louis, Mo.) in deionized water, respectively. For FIG. 6D, cells with fluorescence intensities below a value of 1.0, as reported by the SimFCS software, were excluded from the analysis. […]

CC1(C)S[C@@H]2[C@H](NC(=O)[C@H](N)c3ccccc3)C(=O)N2[C@H]1C(=O)O [ampicillin]
average values along the g-axis (E. coli [1]; E. coli exposed to ampicillin): vary with concentration
phasor profile after drug is removed (E. coli [1]; E. coli, after ampicillin is removed): recovers to smaller values of g

O=P(O)(O)O [phosphoric acid, reference compound]
host-killing activity (host killing index) ([2]; surface-attached wild-type P. aeruginosa in rich (PS:DB) medium, supplemented at 3 hours at 0.2%, assessed after 6 hours of growth, amoeba host cells): little impact on host-killing activity

CN(C)[C@@H]1C(O)=C(C(N)=O)C(=O)[C@@]2(O)C(O)=C3C(=O)c4c(O)cccc4[C@@](C)(O)[C@H]3C[C@@H]12 [tetracycline]
concentration at which the increase in RR value begins (E. coli [3]): 50 µg/mL

antimycin A [reference compound]
shift in fluorescence lifetime g-value (P. aeruginosa): shift towards higher g-value
virulence induced earlier than untreated cells ([2]; surface-attached P. aeruginosa, 10 μM antimycin A in 0.1% ethanol added at 3 hours, host killing at 4.5 to 6 hours): 30 min
